Common to all, as to experiment: NCI-60 cell line screen, 48 h
Experiment [1] concerns MDA-MB-435.
For experiment [2], the system named is OVCAR-5.
The test system of experiment [3] is 786-0.
In experiment [4] the test system is KM12.
In experiment [5] the test system is T47D.
The test system of experiment [6] is M14.
The subject of experiment [7] is SW-620.
For experiment [8], the system named is COLO 205.
Experiment [9] relates to SK-OV-3.
In experiment [10] the test system is TK-10.
For experiment [11], the system named is SNB-75.
In experiment [12] the test system is LOX IMVI.
In experiment [13] the test system is Hs-578T.
In experiment [14] the test system is MDA-MB-231.
Experiment [15] deals with UO-31.
The test system of experiment [16] is Malme-3M.
Experiment [17] relates to RXF 393.
In experiment [18] the test system is NCI-H23.
In experiment [19] the test system is HT-29.
Experiment [20] has as its system MCF7.

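Cultured in 96-well plates, cells were exposed to test compound for 48 hours across five concentrations. GI50: concentration for 50% inhibition of growth.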 Activity calls are given as the source filed them. Rule as the data show it: active = GI50 up to about 1.1 µM and inactive = higher. A value given as a limit tells only on which side of the number the result lay.

Take `O=C(O)c1cc(-c2ccc3c(O)c(O)ccc3c2)ccc1O`: the GI50 is 21.7 µM (inactive) in [1]; 12.6 µM (inactive) in [2]; 31.7 µM (inactive) in [3]; 47.4 µM (inactive) in experiment [4]; > 75 µM (inactive) in experiment [5]; 20.7 µM (inactive) in [6]. Also, the GI50 is 15 µM (inactive) in experiment [7]; 24.9 µM (inactive) in experiment [8]; > 75 µM (inactive) in [9]; > 75 µM (inactive) in [10]; > 75 µM (inactive) in experiment [11]; 14.1 µM (inactive) in experiment [12]. Besides, the GI50 in [13] is > 75 µM (inactive); in experiment [14] it was 26.1 µM (inactive); in [15], > 75 µM (inactive); in experiment [16] it was > 75 µM (inactive); in [17], 17.4 µM (inactive); in [18] it was 43.6 µM (inactive). The GI50 was 18.6 µM (inactive) in [19] and 13.4 µM (inactive) in experiment [20].
As for `c1cncc(CNCCN2CCNCC2)c1`, the GI50 in experiment [1], in experiment [2], in experiment [3], in experiment [4], in experiment [5] and in experiment [6] was > 100 µM (inactive) in each case. Besides, the GI50 in experiment [7], in experiment [8], in experiment [9], in experiment [10], in experiment [11] and in experiment [12] was > 100 µM (inactive) in each case. The GI50 in [13], in experiment [14], in experiment [15], in experiment [16], in experiment [17] and in experiment [18] was > 100 µM (inactive) each time. The GI50 in [19] and in [20] was > 100 µM (inactive) each time.
Take `COP(C)(=O)C1=CCN(C(=O)OCC[Si](C)(C)C)CC1` (stereo not given): the GI50 in experiment [1], in [2], in [3], in [4], in experiment [5] and in [6] was > 100 µM (inactive) in each case. Moreover, the GI50 in [7], in [8], in experiment [9], in [10], in experiment [11] and in [12] was > 100 µM (inactive) in each case. Besides, the GI50 in [13], in experiment [14], in [15], in experiment [16], in experiment [17] and in [18] was > 100 µM (inactive) each time. For the same molecule, the GI50 in experiment [19] and in [20] was > 100 µM (inactive) each time.
Regarding `CC1OC(O[C@H]2C3C=CO[C@@H](OC4OC(CO)C(O)C(O)C4O)C3[C@@]3(COC(=O)/C=C/c4ccccc4)O[C@@H]23)C(O)C(O)C1O` (stereo not given in full), the GI50 in experiment [1], in experiment [2], in experiment [3], in experiment [4], in experiment [5] and in experiment [6] was > 100 µM (inactive) throughout. Further, the GI50 in experiment [7], in experiment [8], in experiment [9], in [10], in experiment [11] and in experiment [12] was > 100 µM (inactive) throughout. Also, the GI50 in [13], in experiment [14], in [15], in experiment [16], in experiment [17] and in [18] was > 100 µM (inactive) in each case. In addition, the GI50 in experiment [19] and in experiment [20] was > 100 µM (inactive) in each case.
Consider `O=C1C(Cl)=C(Cl)C(Cl)(Cl)C(Cl)C1(Cl)Cl` (stereo not given), for which the GI50 was 23.1 µM (inactive) in experiment [1]; 23.2 µM (inactive) in experiment [2]; 37.8 µM (inactive) in experiment [3]; 20.1 µM (inactive) in experiment [4]; 21 µM (inactive) in experiment [5]; 25.6 µM (inactive) in [6]. The GI50 in experiment [7] was 22 µM (inactive); in [8], 17.9 µM (inactive); in experiment [9], 26.2 µM (inactive); in experiment [10] it was 19.5 µM (inactive); in [11], 21.5 µM (inactive); in [12], 19.4 µM (inactive). For the same molecule, the GI50 is 21.3 µM (inactive) in [13]; 20 µM (inactive) in experiment [14]; 15.8 µM (inactive) in experiment [15]; 18.8 µM (inactive) in experiment [16]; 20 µM (inactive) in experiment [17]; 21.9 µM (inactive) in [18]. Besides, the GI50 in experiment [19] is 24.5 µM (inactive); in [20], 22.7 µM (inactive).
Turning to `CN1C(=O)C(CC(=O)O)NC1=S` (stereo not given), the GI50 was > 100 µM (inactive) in experiment [1]; > 100 µM (inactive) in experiment [2]; > 100 µM (inactive) in experiment [3]; > 100 µM (inactive) in experiment [4]; 51.4 µM (inactive) in experiment [5]; > 100 µM (inactive) in experiment [6]. Also, the GI50 in experiment [7], in [8], in experiment [9], in experiment [10], in experiment [11] and in experiment [12] was > 100 µM (inactive) throughout. For the same molecule, the GI50 in [13], in experiment [14], in experiment [15], in [16], in experiment [17] and in [18] was > 100 µM (inactive) throughout. In addition, the GI50 was > 100 µM (inactive) in experiment [19] and 54 µM (inactive) in experiment [20].
Take `COc1cc(Br)cc2cc(-c3cn4ccsc4n3)c(=O)oc12`: the GI50 in experiment [1] is 21.6 µM (inactive); in experiment [2], 68.1 µM (inactive); in [3], 42.8 µM (inactive); in experiment [4], 18.9 µM (inactive); in experiment [5] it was 19.6 µM (inactive); in [6], 27.9 µM (inactive). For the same molecule, the GI50 in [7] was 36 µM (inactive); in experiment [8] it was 57.3 µM (inactive); in experiment [9], 33.7 µM (inactive); in experiment [10], 64.7 µM (inactive); in experiment [11], 32.1 µM (inactive); in experiment [12], 49.4 µM (inactive). Moreover, the GI50 was 41.5 µM (inactive) in experiment [13]; 20.6 µM (inactive) in experiment [14]; 23.8 µM (inactive) in experiment [15]; 91.2 µM (inactive) in [16]; 24.8 µM (inactive) in experiment [17]; 39.1 µM (inactive) in experiment [18]. Further, the GI50 in experiment [19] was 40.2 µM (inactive); in experiment [20] it was 7.19 µM (inactive).
On to `N#Cc1nc(-c2ccccn2)c(-c2ccccn2)nc1C#N`, for which the GI50 in experiment [1] was 2.7 µM (inactive); in [2], 3.32 µM (inactive); in experiment [3] it was 0.515 µM (active); in experiment [4] it was 2.52 µM (inactive); in experiment [5] it was 1.69 µM (inactive); in experiment [6], 1.59 µM (inactive). Further, the GI50 in experiment [7] is 3.08 µM (inactive); in [8] it was 1.97 µM (inactive); in experiment [9] it was 1.6 µM (inactive); in experiment [10] it was 1.82 µM (inactive); in experiment [11] it was 8.05 µM (inactive); in experiment [12], 1.03 µM (active). The GI50 was 11.2 µM (inactive) in [13]; 10.7 µM (inactive) in experiment [14]; 1.3 µM (inactive) in experiment [15]; 1.45 µM (inactive) in experiment [16]; 3.58 µM (inactive) in experiment [17]; 2.9 µM (inactive) in experiment [18]. For the same molecule, the GI50 in experiment [19] is 2.82 µM (inactive); in experiment [20], 1.22 µM (inactive).
For `C[C@@]1(CCCCCCCCCCc2ccccc2)C[C@@]2(C)OC(=O)C[C@H]2OO1`, the GI50 in experiment [1] is 1.81 µM (inactive); in experiment [2] it was 1.76 µM (inactive); in experiment [3] it was 1.51 µM (inactive); in experiment [4] it was 1.81 µM (inactive); in experiment [5], 2.49 µM (inactive); in experiment [6], 1.51 µM (inactive). Moreover, the GI50 was 1.68 µM (inactive) in [7]; 1.7 µM (inactive) in [8]; 2.48 µM (inactive) in experiment [9]; 2.83 µM (inactive) in experiment [10]; 2.81 µM (inactive) in experiment [11]; 2.05 µM (inactive) in [12]. Also, the GI50 was 2.47 µM (inactive) in experiment [13]; 1.67 µM (inactive) in [14]; 1.89 µM (inactive) in experiment [15]; 1.54 µM (inactive) in experiment [16]; 1.93 µM (inactive) in experiment [17]; 1.55 µM (inactive) in experiment [18]. Further, the GI50 is 1.46 µM (inactive) in [19] and 1.56 µM (inactive) in experiment [20].
On to `Cc1noc(C)c1-n1nc2ccc3nonc3c2n1`, for which the GI50 in experiment [1] is > 100 µM (inactive); in [2], > 100 µM (inactive); in experiment [3] it was 37.5 µM (inactive); in [4] it was > 100 µM (inactive); in experiment [5], > 67.3 µM (inactive); in experiment [6], > 100 µM (inactive). In addition, the GI50 is > 100 µM (inactive) in experiment [7]; > 100 µM (inactive) in experiment [8]; 34.8 µM (inactive) in [9]; 24.8 µM (inactive) in experiment [10]; 33.1 µM (inactive) in experiment [11]; > 100 µM (inactive) in [12]. The GI50 is 29 µM (inactive) in [13]; > 65.9 µM (inactive) in [14]; 47.2 µM (inactive) in experiment [15]; > 100 µM (inactive) in experiment [16]; 23 µM (inactive) in [17]; > 72.8 µM (inactive) in experiment [18]. Further, the GI50 in [19] is > 100 µM (inactive); in [20], > 67.8 µM (inactive).

For the origin of these results see ChEMBL document CHEMBL1201862, “PubChem BioAssay data set” (2004).
